Results reported in PubChem BioAssay AID328 (DTP/NCI, 2004).
“And” between values parts separate entries of the source, which are not always exact repeats. Equal entries are not always repeated. Inconclusive results and toxic doses are left out.

System: BDF1 mice, P388 leukemia ip, median survival T/C
Assay: NCI In Vivo Anticancer Drug Screen. Data for tumor model P388 Leukemia (intraperitoneal) in B6D2F1 (BDF1) mice
Details: endpoint: median survival time, higher = longer survival
Method in brief: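 Survival ratio, drug arm over vehicle arm, in mice with a transplanted tumour.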

[1] = dose: 50.0 mg/kg/injection, schedule: Q04DX003 (ip), vehicle: saline
[2] = dose: 100.0 mg/kg/injection, schedule: Q04DX003 (ip), vehicle: saline
[3] = dose: 50.0 mg/kg/injection, schedule: Q01DX009 (ip), vehicle: saline with Tween-80
[4] = dose: 100.0 mg/kg/injection, schedule: Q01DX009 (ip), vehicle: saline with Tween-80
[5] = dose: 200.0 mg/kg/injection, schedule: Q01DX009 (ip), vehicle: saline with Tween-80
[6] = dose: 400.0 mg/kg/injection, schedule: Q01DX009 (ip), vehicle: saline with Tween-80
[7] = dose: 100.0 mg/kg/injection, schedule: Q01DX001 (ip), vehicle: saline with Tween-80
[8] = dose: 50.0 mg/kg/injection, schedule: Q04DX003 (ip), vehicle: water
[9] = dose: 100.0 mg/kg/injection, schedule: Q04DX003 (ip), vehicle: water
[10] = dose: 200.0 mg/kg/injection, schedule: Q04DX003 (ip), vehicle: water
[11] = dose: 400.0 mg/kg/injection, schedule: Q04DX003 (ip), vehicle: water
[12] = dose: 100.0 mg/kg/injection, schedule: Q01DX009 (ip), vehicle: Klucel (hydroxypropylcellulose) (HPC)
[13] = dose: 100.0 mg/kg/injection, schedule: Q01DX009 (ip), vehicle: saline
[14] = dose: 200.0 mg/kg/injection, schedule: Q01DX009 (ip), vehicle: saline
[15] = dose: 100.0 mg/kg/injection, schedule: Q04DX003 (ip), vehicle: Klucel (hydroxypropylcellulose) (HPC)
[16] = dose: 200.0 mg/kg/injection, schedule: Q01DX009 (ip), vehicle: Klucel (hydroxypropylcellulose) (HPC)
[17] = dose: 200.0 mg/kg/injection, schedule: Q04DX003 (ip), vehicle: Klucel (hydroxypropylcellulose) (HPC)
[18] = dose: 200.0 mg/kg/injection, schedule: Q04DX003 (ip), vehicle: saline

[Cl][Pt+2][Cl].[NH-]CC1(C[NH-])CCC1
T/C (dose: 0.4 mg/kg/injection, schedule: Q01DX009 (ip), vehicle: suspension in saline): 156 % of control
T/C (dose: 0.79 mg/kg/injection, schedule: Q01DX009 (ip), vehicle: suspension in saline): 154 % of control
T/C (dose: 1.56 mg/kg/injection, schedule: Q01DX009 (ip), vehicle: suspension in saline): 250 % of control
T/C (dose: 3.12 mg/kg/injection, schedule: Q01DX009 (ip), vehicle: suspension in saline): 250 % of control
T/C (dose: 6.25 mg/kg/injection, schedule: Q01DX009 (ip), vehicle: suspension in saline): 169 % of control
T/C (dose: 12.5 mg/kg/injection, schedule: Q01DX009 (ip), vehicle: suspension in saline): 104 % of control

CC1CN(c2ccc([N+](=O)[O-])cc2)C(C)CN1 (configuration not stated)
T/C (dose: 25.0 mg/kg/injection, schedule: Q04DX003 (ip), vehicle: saline): 100 % of control
T/C [1]: 110 % of control
T/C [2]: 90 % of control

CC1CC=C(C2CC(C)CC(N(C)C)C2=N)CC1 (configuration not stated)
T/C (dose: 12.5 mg/kg/injection, schedule: Q01DX009 (sc), vehicle: olive oil, sesame oil, peanut oil): 104 % of control
T/C (dose: 25.0 mg/kg/injection, schedule: Q01DX009 (sc), vehicle: olive oil, sesame oil, peanut oil): 109 % of control
T/C (dose: 50.0 mg/kg/injection, schedule: Q01DX009 (sc), vehicle: olive oil, sesame oil, peanut oil): 113 % of control
T/C (dose: 100.0 mg/kg/injection, schedule: Q04DX003 (sc), vehicle: olive oil, sesame oil, peanut oil): 91 % of control
T/C (dose: 200.0 mg/kg/injection, schedule: Q04DX003 (sc), vehicle: olive oil, sesame oil, peanut oil): 104 % of control
T/C (dose: 400.0 mg/kg/injection, schedule: Q04DX003 (sc), vehicle: olive oil, sesame oil, peanut oil): 116 % of control

ClCc1ccc2ccccc2n1
T/C [3]: 113 % of control
T/C [4]: 122 % of control
T/C (dose: 132.0 mg/kg/injection, schedule: Q01DX009 (ip), vehicle: saline with Tween-80): 113 % of control
T/C [5]: 122 % of control
T/C (dose: 300.0 mg/kg/injection, schedule: Q01DX009 (ip), vehicle: saline with Tween-80): 104 % of control

NC(=O)Oc1ccccc1
T/C [4]: 104 % of control
T/C [5]: 109 % of control
T/C [6]: 86 % of control

O=C(/C=C/c1ccncc1)c1ccccc1
T/C [7]: 122 % of control
T/C (dose: 200.0 mg/kg/injection, schedule: Q01DX001 (ip), vehicle: saline with Tween-80): 113 % of control

CSc1c(C)[nH]c2ccc([N+](=O)[O-])cc12
T/C (dose: 25.0 mg/kg/injection, schedule: Q01DX001 (ip), vehicle: saline with Tween-80): 95 % of control
T/C (dose: 50.0 mg/kg/injection, schedule: Q01DX001 (ip), vehicle: saline with Tween-80): 111 % of control
T/C [7]: 100 % of control

CCOC(=O)C(C)Oc1ccc(Cl)cc1 (configuration not stated)
T/C (dose: 25.0 mg/kg/injection, schedule: Q04DX003 (ip), vehicle: water): 106 % of control
T/C [8]: 101 % of control
T/C [9]: 113 % of control
T/C [10]: 112 % of control
T/C [11]: 106 % of control

CCOC(=O)Cc1csc(=NC(=O)c2ccccc2)n1N
T/C [3]: 108 % of control
T/C [4]: 115 % of control
T/C [5]: 101 % of control

O=c1[nH]cc(F)c(=O)[nH]1.[Tl]
T/C (dose: 6.25 mg/kg/injection, schedule: Q01DX009 (ip), vehicle: Klucel (hydroxypropylcellulose) (HPC)): 117 % of control
T/C (dose: 12.5 mg/kg/injection, schedule: Q01DX009 (ip), vehicle: Klucel (hydroxypropylcellulose) (HPC)): 102 % of control and 110 % of control
T/C (dose: 25.0 mg/kg/injection, schedule: Q01DX009 (ip), vehicle: Klucel (hydroxypropylcellulose) (HPC)): 87 % of control
T/C [12]: 91 % of control

CCCCCC(=O)c1ccc(OCCCN2CCN(C(=O)OCC)CC2)cc1
T/C [4]: 105 % of control
T/C [5]: 104 % of control

Cc1ccc(O)cc1Cl
T/C [13]: 96 % of control
T/C [14]: 104 % of control
T/C (dose: 400.0 mg/kg/injection, schedule: Q01DX009 (ip), vehicle: saline): 104 % of control

COc1ccc2c(c1)CCC1C2=CC(=O)/C1=C\[O-].COc1ccc2c(c1)CCC1C2=CC(=O)/C1=C\[O-].[Cu+2] (configuration not stated)
T/C (dose: 12.5 mg/kg/injection, schedule: Q04DX003 (ip), vehicle: saline with Tween-80): 113 % of control
T/C (dose: 25.0 mg/kg/injection, schedule: Q04DX003 (ip), vehicle: saline with Tween-80): 109 % of control

c1ccc2c(c1)cc1c3nncn3ncn21
T/C [3]: 90 % of control
T/C [4]: 114 % of control

COc1ccc(CN2COc3c(cc(C)c4cccnc34)C2)cc1
T/C (dose: 12.5 mg/kg/injection, schedule: Q01DX009 (ip), vehicle: saline with Tween-80): 90 % of control
T/C (dose: 25.0 mg/kg/injection, schedule: Q01DX009 (ip), vehicle: saline with Tween-80): 94 % of control
T/C [3]: 92 % of control

O=c1[nH]c2nccnc2[nH]1
T/C (dose: 12.5 mg/kg/injection, schedule: Q01DX009 (ip), vehicle: water): 93 % of control and 99 % of control
T/C (dose: 25.0 mg/kg/injection, schedule: Q01DX009 (ip), vehicle: water): 90 % of control and 104 % of control
T/C (dose: 50.0 mg/kg/injection, schedule: Q01DX009 (ip), vehicle: water): 97 % of control
T/C [8]: 107 % of control
T/C (dose: 100.0 mg/kg/injection, schedule: Q01DX009 (ip), vehicle: water): 89 % of control and 101 % of control and 109 % of control
T/C [9]: 105 % of control
T/C [10]: 107 % of control
T/C [11]: 116 % of control

CC(C#N)(C#N)N=Nc1ccc(Cl)cc1Cl
T/C [4]: 116 % of control

Cc1ccc(S(=O)(=O)N2CCC(=O)c3ccc(Cl)cc32)cc1
T/C [15]: 100 % of control
T/C [16]: 100 % of control
T/C [17]: 104 % of control
T/C (dose: 400.0 mg/kg/injection, schedule: Q01DX009 (ip), vehicle: Klucel (hydroxypropylcellulose) (HPC)): 95 % of control
T/C (dose: 400.0 mg/kg/injection, schedule: Q04DX003 (ip), vehicle: Klucel (hydroxypropylcellulose) (HPC)): 104 % of control

O=c1cc(O)ccn1CC(O)c1ccc(Cl)s1 (configuration not stated)
T/C [4]: 101 % of control and 111 % of control
T/C (dose: 100.0 mg/kg/injection, schedule: Q04DX003 (ip), vehicle: saline with Tween-80): 109 % of control
T/C [5]: 92 % of control and 104 % of control
T/C (dose: 200.0 mg/kg/injection, schedule: Q04DX003 (ip), vehicle: saline with Tween-80): 110 % of control
T/C [6]: 108 % of control and 113 % of control
T/C (dose: 400.0 mg/kg/injection, schedule: Q04DX003 (ip), vehicle: saline with Tween-80): 119 % of control

O=C(NNC(=O)OCc1ccccc1)OCc1ccccc1
T/C (dose: 50.0 mg/kg/injection, schedule: Q01DX009 (ip), vehicle: Klucel (hydroxypropylcellulose) (HPC)): 96 % of control
T/C [12]: 96 % of control
T/C [15]: 90 % of control
T/C [16]: 92 % of control
T/C [17]: 109 % of control

[N-]=[N+]=NCc1cnccn1
T/C (dose: 12.5 mg/kg/injection, schedule: Q01DX009 (ip), vehicle: saline): 100 % of control
T/C (dose: 25.0 mg/kg/injection, schedule: Q01DX009 (ip), vehicle: saline): 113 % of control

Cc1cccc(NC(=O)N(CCCl)N=O)c1
T/C (dose: 0.4 mg/kg/injection, schedule: Q01DX009 (ip), vehicle: saline): 157 % of control
T/C (dose: 38.0 micrograms/kg/injection, schedule: Q04DX003 (ip), vehicle: saline): 100 % of control
T/C (dose: 75.0 micrograms/kg/injection, schedule: Q04DX003 (ip), vehicle: saline): 109 % of control
T/C (dose: 150.0 micrograms/kg/injection, schedule: Q04DX003 (ip), vehicle: saline): 104 % of control
T/C (dose: 300.0 micrograms/kg/injection, schedule: Q04DX003 (ip), vehicle: saline): 109 % of control

C/C(CCC(=O)O)=N/O
T/C [13]: 110 % of control
T/C [2]: 104 % of control
T/C [14]: 120 % of control
T/C [18]: 108 % of control
T/C (dose: 400.0 mg/kg/injection, schedule: Q04DX003 (ip), vehicle: saline): 116 % of control

CCOCCc1ccncc1
T/C [1]: 112 % of control
T/C [2]: 108 % of control
T/C [18]: 100 % of control
